The values that follow come from patent publication EP4028131B1, “HETEROAROMATIC COMPOUNDS USEFUL IN THERAPY” (CUROVIR AB, priority 2019, dated 2021).

Data set [1] is described as follows: cell viability assay using tetrazolium salt (MTS). The settings on record: human. The protocol: The cell viability assay using tetrazolium salt (MTS) was also performed in HEp-2 cells.
The test system of data set [2] is RSV strain A2. Put plainly: standard plaque reduction assay for anti-RSV activity. To be noted: for SI (CC50/IC50): calculated selectivity index, HEp-2 cells; for IC50: human respiratory syncytial virus, HEp-2, read-out: IC50 (RSV).
Data set [3] relates to RSV. Description: plaque titration assay of extracellular and cell-associated virus yield. The settings on record: HEp-2 cells, MOI of 3, compound at 0.2 µM. In kind it is cell-based. On the procedure: The titer of extracellular (EX) and cell-associated (CA) RSV after incubation in Hep-2 cells at a multiplicity of infection (MOI) of 3 was determined by a plaque titration assay. Infected cells were harvested by scraping into fresh supernatant medium and then subjected to a rapid freeze-thaw cycle at -80 °C ethanol and a 37 °C water bath, respectively, to release infectious virus.

Data set [4] deals with RSV. Description: time-of-addition study of antiviral effect. The class given is cell-based. The settings on record: HEp-2 cells, compound at 0.2 µM added from -1h to 6h relative to infection. On the procedure:
A time-of-addition study was performed using the compounds of Examples 25 and 61.

The term CC50 denotes the concentration that lowers cell viability or growth by half. As a reminder, the IC50 is the concentration at which inhibition is half-maximal. Consider `COc1ccc(-c2c(C)nc3c(NCc4ccncc4)cc(C)nn23)cc1OC` [Example 1, 3-(3,4-dimethoxyphenyl)-2,6-dimethyl-N-(pyridin-4-ylmethyl)imidazo[1,2-b]pyridazin-8-amine], for which, in data set [1], the CC50 is 60 µM. Besides, in data set [2], the “SI (CC50/IC50)” value is 2000 and the IC50 came to 0.03 µM.

Consider `Cc1cc(CNc2cc(C)nc3c(-c4ccc5c(c4)c(C)nn5C)c(C)nn23)ccn1` [Example 5, 3-(1,3-dimethyl-1H-indazol-5-yl)-2,5-dimethyl-N-[(2-methylpyridin-4-yl)methyl]pyrazolo[1,5-a]pyrimidin-7-amine], for which the CC50 in data set [1] amounted to 18 µM. In data set [2], the “SI (CC50/IC50)” value was 450 and the IC50 was 0.04 µM.

Regarding `CCc1cc(CNc2cc(C)nc3c(-c4ccc5c(c4)c(C)nn5C)c(C)nn23)ccn1` [Example 6, 3-(1,3-dimethyl-1H-indazol-5-yl)-2,5-dimethyl-N-[(2-ethylpyridin-4-yl)methyl]pyrazolo[1,5-a]pyrimidin-7-amine], the 50% cytotoxic concentration (CC50) in data set [1] was 160 µM. For the same compound, in data set [2], the “SI (CC50/IC50)” value is 3200 and the IC50 was determined as 0.05 µM.

With `COc1ccc(-c2c(C)nn3c(NCc4cccc(S(C)(=O)=O)c4)cc(C)nc23)cc1OC` [Example 25, 3-(3,4-dimethoxyphenyl)-2,5-dimethyl-N-[(3-methylsulfonylphenyl)methyl]pyrazolo[1,5-a]pyrimidin-7-amine], in data set [1], the CC50 is more than 500 µM. In data set [3], the “inhibition of cell-associated (CA) RSV yield” value is “approximately 1 log10” and the “inhibition of extracellular (EX) RSV yield” value is listed as “approximately 1 log10”. The “time dependency of inhibition of RSV yield” value in data set [4] is “time-independent inhibition of RSV yield”. Besides, in data set [2], the “SI (CC50/IC50)” value is on record as more than 25000 and the half-maximal inhibitory concentration (IC50) is 0.02 µM.

Regarding `COc1ccc(-c2c(C)nn3c(NCc4ccc(C)nc4)cc(C)nc23)cc1OC` [Example 29, 3-(3,4-dimethoxyphenyl)-2,5-dimethyl-N-[(6-methyl-3-pyridyl)methyl]pyrazolo[1,5-a]pyrimidin-7-amine], the CC50 in data set [1] (HEp-2 cells) was found to be 60 µM. Moreover, in data set [2], the “SI (CC50/IC50)” value was 150 and the IC50 was 0.04 µM.

For the compound `COc1ccc(-c2c(C)nn3c(NCc4ccncc4)nc(C)nc23)cc1OC` [Example 38, 8-(3,4-dimethoxyphenyl)-2,7-dimethyl-N-(4-pyridylmethyl)pyrazolo[1,5-a][1,3,5]triazin-4-amine], the CC50 in data set [1] came out at 60 µM. In addition, in data set [2], the “SI (CC50/IC50)” value is on record as 667 and the IC50 was determined as 0.09 µM.

In the case of `COc1ccc(-c2c(C)nn3c(NCc4ccc(S(N)(=O)=O)cc4)nc(C)nc23)cc1OC` [Example 45, 4-[[[8-(3,4-dimethoxyphenyl)-2,7-dimethylpyrazolo[1,5-a][1,3,5]triazin-4-yl]amino]methyl]benzenesulfonamide], the 50% cytotoxic concentration (CC50) in data set [1] was more than 500 µM. In data set [2], the “SI (CC50/IC50)” value was more than 7143 and the IC50 came to 0.07 µM.

As for `Cc1cc(NCc2ccncc2)c2nc(C)c(-c3ccc4c(c3)c(C)nn4C)n2n1` [Example 61, 3-(1,3-dimethyl-1H-indazol-5-yl)-2,6-dimethyl-N-(pyridin-4-ylmethyl)imidazo[1,2-b]pyridazin-8-amine], in data set [1], the CC50 is 18 µM. In addition, in data set [3], the “inhibition of cell-associated (CA) RSV yield” value is reported as “approximately 1 log10” and the “inhibition of extracellular (EX) RSV yield” value is on record as “approximately 1 log10”. In addition, the “time dependency of inhibition of RSV yield” value in data set [4] is on record as “time-independent inhibition of RSV yield”. Moreover, in data set [2], the “SI (CC50/IC50)” value is 514 and the IC50 is 0.034 µM.

`Cc1cc(NCc2ccncc2)n2nc(C)c(-c3ccc4c(c3)c(C)nn4C)c2n1` [Example 68, 3-(1,3-dimethyl-1H-indazol-5-yl)-2,5-dimethyl-N-(pyridin-4-ylmethyl)pyrazolo[1,5-a]pyrimidin-7-amine]: the CC50 in data set [1] was determined as 40 µM. In data set [2], the “SI (CC50/IC50)” value was 1000 and the IC50 came out at 0.04 µM.

Turning to `CC(=O)Nc1nc(C)c(-c2ccc(Cl)c(S(=O)(=O)NCCO)c2)s1` [PIK-93, reference compound], the IC50 in data set [2] is 0.4 µM.

Consider `Cc1cc(CCCOc2c(C)cc(-c3noc(C(F)(F)F)n3)cc2C)on1` [Pleconaril, reference compound], for which the half-maximal cytotoxic concentration (CC50) in data set [1] was 300 µM. In data set [2], the “SI (CC50/IC50)” value is recorded as 38 and the IC50 was 8 µM.
